What follows are compounds tested against T1, hSK3 channels (Homo sapiens, UniProt Q9UGI6) (assay: Whole-cell patch-clamp recording of ionic current through SK channels (subtype 3) in HEK293 cells expressing hSK3). Details: SK3 activation.
T1 construct: expressed in transfected cells; host or cells: HEK293
Format: cell-based
Protocol: The ionic current through small-conductance Ca^2+-activated K^+ channels (SK channels, subtype 3) is recorded using the whole-cell configuration of the patch-clamp technique in a classic patch-clamp set-up using HEK293 tissue culture cells expressing hSK3 channels as described in e.g. WO 2006/100212.
The SC100 value determined is defined as the Stimulating Concentration required for increasing the baseline current by 100%.

Row | SMILES | The SC100 (Stimulating Concentration required for increasing the baseline current by 100%) [µM]
1 | CCc1cc(CC)n(-c2nc(Nc3ccc(Cl)cc3)c3ncn(C)c3n2)n1 [Compound 9.14, (4-Chloro-phenyl)-[2-(3,5-diethyl-pyrazol-1-yl)-9-methyl-9H-purin-6-yl]-amine] | 0.6
2 | Cc1nn(-c2nc(Nc3ccc(Cl)cc3)c3ncn(C)c3n2)c(C)c1Cl [Compound 9.16, [2-(4-Chloro-3,5-dimethyl-pyrazol-1-yl)-9-methyl-9H-purin-6-yl]-(4-chloro-phenyl)-amine] | 0.02
3 | Cc1cc(C)n(-c2nc(NCCc3ccccc3)c3ncn(C)c3n2)n1 [Compound 9.11, [2-(3,5-Dimethyl-pyrazol-1-yl)-9-methyl-9H-purin-6-yl]-phenethyl-amine] | 0.2
4 | COCCn1cnc2c(Nc3ccccc3)nc(-n3nc(C)cc3C)nc21 [Compound 15.1, [2-(3,5-Dimethyl-pyrazol-1-yl)-9-(2-methoxy-ethyl)-9H-purin-6-yl-]phenyl-amine] | 0.4
5 | Cc1cc(-c2ccco2)nn1-c1nc(Nc2ccc(Cl)cc2)c2ncn(C)c2n1 [Compound 9.18, (4-Chloro-phenyl)-[2-(3-furan-2-yl-5-methyl-pyrazol-1-yl)-9-methyl-9H-purin-6-yl]-amine] | 1.0
6 | Cc1cc(C)n(-c2nc(Nc3ccccc3)c3nc[nH]c3n2)n1 [Compound 14.1, [2-(3,5-Dimethyl-pyrazol-1-yl)-9H-purin-6-yl]-phenyl-amine] | 0.2

Continued, values first:

Row | The SC100 (Stimulating Concentration required for increasing the baseline current by 100%) [µM] | SMILES
7 | 0.2 | Cc1cc(CO)n(-c2nc(Nc3ccc(Cl)cc3)c3ncn(C)c3n2)n1 [Compound 13.1, {2-[6-(4-Chloro-phenylamino)-9-methyl-9H-purin-2-yl]-5-methyl-2H-pyrazol-3-yl}-methanol]
8 | 0.2 | Cc1cc(C)n(-c2nc(Nc3ccc([N+](=O)[O-])cc3)c3ncn(C)c3n2)n1 [Compound 9.8, [2-(3,5-Dimethyl-pyrazol-1-yl)-9-methyl-9H-purin-6-yl]-(4-nitro-phenyl)-amine]
9 | 0.01 | CCn1cnc2c(Nc3ccc(Cl)cc3)nc(-n3nc(C)cc3C)nc21 [Compound 6.4, (4-Chloro-phenyl)-[2-(3,5-dimethyl-pyrazol-1-yl)-9-ethyl-9H-purin-6-yl]-amine]
10 | 0.05 | Cc1cc(C)n(-c2nc(Nc3ccc(F)cc3)c3ncn(C)c3n2)n1 [Compound 9.1, [2-(3,5-Dimethyl-pyrazol-1-yl)-9-methyl-9H-purin-6-yl]-(4-fluoro-phenyl)-amine]
11 | 0.4 | Cc1cc(C)n(-c2nc(Nc3ccc(Cl)nc3)c3ncn(C)c3n2)n1 [Compound 9.7, (6-Chloro-pyridin-3-yl)-[2-(3,5-dimethyl-pyrazol-1-yl)-9-methyl-9H-purin-6-yl]-amine]
